Experimental data from PubChem BioAssay AID540271 (Broad Institute, 2011).
Active and inactive are the calls of the source. How the calls were made is not given here.

The compounds below were run on S. cerevisiae expressing PfHSP40, growth rescue, plate reader (assay: Yeast growth rescue from Plasmodium falciparum HSP40 toxicity, dose response confirmatory, plate reader (AID 540271);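 further: yeast growth read after three days of incubation at 30 °C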).

SMILES	AC50
COc1ccccc1CNC(=O)CSc1ccc(-c2ccccn2)nn1	5.89 µM
O=S1OC(c2ccccc2)c2cc(Cl)ccc21 (stereo not drawn)	10.8 µM
COC(=O)COC(=O)c1ccccc1NC(=O)c1ccccc1	3.13 µM
Cc1onc(-c2ccccc2)c1C(=O)NC(=S)NNC(=O)c1ccc(O)cc1O	4.82 µM
O=c1c(O)cccc2cc(O)c(O)c(O)c12	3.63 µM
O=Nc1c(O)c2ccccc2c2ccccc12	0.902 µM
COc1ccc2c(c1)S/C(=C\C(=O)c1ccncc1)N2C	5.21 µM
O=C1c2ccccc2NC(c2ccc(-c3ccc(F)cc3)o2)N1O (stereo not drawn)	8.42 µM
CCC(=O)NC(c1cc(Cl)c2cccnc2c1O)C(C)C (stereo not drawn)	5.29 µM
Cc1ccc(NC(=O)c2cc(N3C(=O)C=CC3=O)ccc2Cl)cc1C	1.63 µM
CC1CC(C)CN(C(=O)c2cccc(S(=O)(=O)Nc3cc(C(F)(F)F)ccc3Cl)c2)C1 (stereo not drawn)	5.69 µM
CCN1/C(=C/c2sc(-c3ccccc3C)c[n+]2C)Sc2ccccc21	5.83 µM
CCCCC(=O)NC(c1ccc(N(C)C)cc1)c1ccc2cccnc2c1O (stereo not drawn)	1.65 µM
Oc1ccc(/C=N/Nc2ccc(C(F)(F)F)cn2)c(O)c1	2.14 µM
O=c1c(CO)cc(CO)cc(CO)c1O	6.03 µM
O=C(NC(=S)N(CCc1ccccc1)CCc1ccccc1)c1ccco1	5.34 µM
O=c1c(Cl)c(Cl)cnn1Cc1nnc(-c2ccc(Cl)cc2)o1	7.45 µM
O=C(c1ccccc1)c1coc2c1C(=O)c1ccccc1C2=O	11.7 µM
Cc1ccc(Sc2cc(C)nc(-c3ccccn3)n2)cc1	3.51 µM
COc1ccc(/C=N/Nc2cc(C)nc(-n3nc(C)cc3C)n2)cc1	5.99 µM
Cc1cccc(Oc2nc(-c3ccccn3)nc3ccccc23)c1	6.77 µM
NC(=O)N=Nc1c2[nH]c3ccccc3nc-2c2ccccc12	3.89 µM
Oc1c(Br)cc(Br)cc1CNc1ccc(F)cc1	6.21 µM
Nc1c(Cl)ncnc1N/N=C/c1ccc2ccccc2n1	5.36 µM

SMILES	AC50
O=C(/C(=N/N=C/c1ccc(O)c(O)c1O)c1ccccc1)c1ccccc1	6.09 µM
CC12CCC(O)CC1=CCC1C2CCC2(C)C3=NN=CC3CC12 (stereo not drawn)	11.4 µM
CCOC(=O)c1cccc2c1-c1ccccc1/C2=N/O	6.3 µM
O=C(c1ccccc1)c1ccc(Cn2cc(-c3ccccc3)nn2)cc1	4.34 µM
Cc1nc2ccc(C(=O)NCc3ccc4c(c3)OCO4)cc2s1	4.51 µM
Cc1cc(C(=O)N/N=C/c2cc(Br)cc([N+](=O)[O-])c2O)c2ccccc2n1	3.37 µM
CCCS(=O)(=O)c1c(S(=O)(=O)CCC)c2c(C)cccn2c1C(=O)N/N=C/c1cc(O)cc(O)c1	3.51 µM
Nc1nc2sc3c(c2c(=O)s1)CCCC3	3.58 µM
O=[N+]([O-])c1cccc(C=NNc2ccc3ccccc3n2)c1O	1.69 µM
O=C(N/N=C(\c1ccccc1)c1cccnc1)c1cccc(F)c1	4.97 µM
Cc1nc2ccc(C(C(F)(F)F)(C(F)(F)F)C(F)(F)F)cc2[nH]1	3.2 µM
O=C1OCC(CO)(CO)N=C1NNc1ccc(Cl)c(Cl)c1	1.87 µM
CCC(Oc1ccccc1)C(=O)Nc1ncc([N+](=O)[O-])s1 (stereo not drawn)	6.83 µM
C=CCNc1nc(-c2ccccn2)nnc1-c1ccccc1	10.3 µM
CC(C)(C)n1nc(Cc2cccc3ccccc23)c2c(N)ncnc21	5.46 µM
C=C(C)COc1ccc(-c2[nH]ncc2-c2ccc(Br)cc2)c(O)c1	4.66 µM
CCCCc1ccc(-n2c(Cc3cccs3)n[nH]c2=S)cc1	6.45 µM
NNC(=O)c1ccc2nc(-c3ccc(Br)cc3)cn2c1	6.47 µM
CCc1nc2ccccc2c(=O)n1NC(=O)c1c(O)c2ccccc2n(CC)c1=O	5.74 µM
Cc1nnc(N/N=C/c2cccc(OCc3ccc(Cl)c(Cl)c3)c2)n1N	> 12 µM (inactive)
CCc1ccc(NC(=O)CSc2ccc(-c3ccccn3)nn2)cc1	2.44 µM
CC1CCCCC1NC(=O)/C(C#N)=C/c1ccccc1F (stereo not drawn)	5.7 µM
Cc1cc(Cl)ccc1C(=O)C1CCCN(C(=O)c2cncs2)C1 (stereo not drawn)	4.83 µM
S=C(Nc1ccc(Oc2ccccc2)cc1)NC1CCCCCC1	6.93 µM

SMILES	AC50
CNC1=C(N(C(C)=O)c2ccc(Br)cc2)C(=O)c2ccccc2C1=O	6.77 µM
O=C1C(Nc2ccccc2)=C/C(=N/S(=O)(=O)c2cccs2)c2ccccc21	3.48 µM
Clc1ccc(C2=NCCN2)cc1	2.38 µM
CCOC(=O)c1ccc(N2C(=O)CC(N3CCC(O)(c4ccc(Cl)cc4)CC3)C2=O)cc1 (stereo not drawn)	6.57 µM
Oc1c(Br)cc(-c2ccccc2)cc1Br	4.93 µM
O=[N+]([O-])c1ccc(Sc2cccc[n+]2[O-])c2nonc12	2.43 µM
CCCCCCN1N=C(C)C(C(=O)c2ccc(Cl)cc2)C1=O (stereo not drawn)	3.23 µM
O=C1c2cc(F)ccc2-n2c1nc1ccccc1c2=O	0.927 µM
O=C(CSc1ccc(-c2ccccn2)nn1)N1CCCc2ccccc21	3.52 µM
COc1cnc(-c2ccccn2)nc1Sc1ccccc1	6.99 µM
O=C(Oc1ccc(N(C(=O)c2ccncc2)S(=O)(=O)c2ccc(Cl)cc2)cc1)c1ccncc1	5.85 µM
Cc1cc(C)c2sc(NNC(=O)c3ccc(S(=O)(=O)N4CCc5ccccc5C4)cc3)nc2c1	1.48 µM
Cc1cccc(NS(=O)(=O)c2ccc(-c3cnc(C4CC4)o3)cc2)c1C	5.32 µM
Fc1ccc(CCNC(=S)Nc2ccc(F)c(Cl)c2)cc1	7.64 µM
Clc1ccc(CSC(Cn2ccnc2)c2ccc(Cl)cc2Cl)cc1 (stereo not drawn)	0.25 µM
Cc1cc(-c2ccccc2)n(-c2cc(N/N=C/c3ccccc3O)ncn2)n1	5.77 µM
CC(C)C(=O)NC(c1cccc([N+](=O)[O-])c1)c1ccc2cccnc2c1O (stereo not drawn)	1.27 µM
Oc1c(I)cc(Cl)c2cccnc12	0.629 µM
COc1ccc(N(C)S(=O)(=O)c2ccc(Cl)c(C(=O)NNC(=O)c3ccccc3O)c2)cc1	2.52 µM
O=[N+]([O-])c1ccc(S(=O)Cc2ccccc2)c([N+](=O)[O-])c1 (stereo not drawn)	1.75 µM
Cc1ccccc1NC(=O)CSc1ccc(-c2ccccn2)nn1	4.42 µM
CCc1ccccc1OCC(=O)Nc1nc(-c2cccnc2)cs1	1.84 µM
Cc1csc2nc(O)c(C(=O)NCCCc3ccccc3)c(=O)n12	4.55 µM
CC[n+]1c(/C=C/C=C/c2ccc(N(C)C)cc2)sc2ccccc21	3.71 µM

SMILES	AC50
C(=C1c2ccccc2-c2ccccc21)c1ccncc1	6.18 µM
Cc1ccc(C(C)(C)C)cc1S(=O)(=O)Nc1ncnc2sccc12	2.83 µM
Cc1cccc2sc(NNC(=O)c3ccc(S(=O)(=O)N4CCCC(C)C4)cc3)nc12 (stereo not drawn)	2.81 µM
Clc1ccccc1C(c1ccccc1)(c1ccccc1)n1ccnc1	0.387 µM
O=c1c2ccccc2c(-c2ccc(O)cc2)nn1-c1cccc(C(F)(F)F)c1	3.92 µM
CC(C)(C)C(=O)C(Cl)C(=O)Nc1ccccc1 (stereo not drawn)	5.65 µM
Cc1ccc(C)c(/C=C/C(=O)c2ccccc(=O)c2O)c1	3.17 µM
CCCCCCCCCCCCCC(=O)NO	0.727 µM
COC(=O)c1ccc(N2C(=O)CC(N(C)CCc3ccc(OC)c(OC)c3)C2=O)cc1 (stereo not drawn)	5.2 µM
O/N=C/c1cc(Br)ccc1OCc1cccc(F)c1	6.89 µM
COc1cc(NS(=O)(=O)c2ccc(C)cc2)c2ncccc2c1	5.4 µM
O=C1c2ccccc2NC(c2ccc(-c3ccc(C(F)(F)F)cc3)o2)N1O (stereo not drawn)	2.4 µM
CCCCCCSc1ccc(-c2nc3ccccn3c2NCCCC)cc1	6.05 µM
CC(C)(C)c1cc(-c2nc(N)nc(N)n2)c(O)c(C(C)(C)C)c1	4.99 µM
O=C(COc1ccccc1F)Nc1nc(-c2ccccn2)cs1	5.52 µM
Oc1c(C(Nc2cccc(C(F)(F)F)c2)c2ccncc2)ccc2cccnc12 (stereo not drawn)	1.92 µM
Cc1ccoc1C(=O)Nc1cccc(Oc2ccccc2)c1	2.85 µM
COc1ccc(-c2cc(C(=O)NNC(=S)NC(=O)c3c(-c4ccccc4)noc3C)[nH]n2)cc1	2.69 µM
Cc1oc2c(c1C(=O)c1ccccc1)C(=O)C(=O)c1ccccc1-2	5.65 µM
O=C(NCCC1=CCCCC1)c1c(O)nc2sccn2c1=O	3.82 µM
O/N=C(\c1ccc(Cl)cc1)c1cc2ccccc2o1	5.38 µM
CN(C)c1ccc(C=c2c3cc(O)ccc3n3c2cc(-c2ccccc2)[n+]3C)cc1	2.88 µM
S=C(NCc1ccco1)Nc1ccc(Oc2ccc(Cl)cc2)cc1	7.02 µM
O=C(N/N=C/c1ccc[nH]1)c1sc2ccccc2c1Cl	6.23 µM

SMILES	AC50
O=[N+]([O-])c1cc(C(F)(F)F)ccc1NCCc1c[nH]c2ccc(O)cc12	4.85 µM
Nc1nc(-c2ccccc2)c(-c2ccc([N+](=O)[O-])cc2)s1	3.99 µM
O=C(O)c1ccccc1NC(c1ccccc1)c1ccc2cccnc2c1O (stereo not drawn)	2.19 µM
CCCn1nc(C(=O)N2CCN(S(=O)(=O)c3ccc(C)c(C)c3)CC2)c2ccccc2c1=O	6.13 µM
COc1ccc2c(c1)OC[C@H]1[C@H]2N2C(=O)c3cc(OC)ccc3NC(=O)[C@@]2(C)[C@H]1c1ccccc1	4.84 µM
N#C/C(=C\c1cccc(Oc2ccccc2)c1)C(=O)N1CCOCC1	5.91 µM
CCCCCCCc1ccc(-c2ccc(O)cc2)nc1	5.12 µM
COc1ccc(OC)c2c1C(=O)C(Cl)=C(Cl)C2=O	1.4 µM
O=C(NNC(=O)c1cc(Cl)ccc1O)c1cccc(S(=O)(=O)N2CCOCC2)c1	5.28 µM
CCCCCCCCCCOC(=O)Cn1c(COc2ccc(OC)cc2)[n+](C)c2ccccc21	6.37 µM
CC(C)NC(=O)NC(=O)COC(=O)c1ccc([N+](=O)[O-])cc1Cl	12 µM
O=C(Nc1nc(-c2ccccn2)cs1)c1ccc(Br)s1	0.584 µM
O/N=C/c1ccccc1OCc1ccc(Cl)cc1	5.07 µM
O=C(COc1ccc([N+](=O)[O-])cc1)Nc1nc(-c2ccccn2)cs1	5.37 µM
CCCn1c2ccccc2c2cc(C(=O)O)ccc21	7.09 µM
O=[N+]([O-])c1cc(Cl)cc(/C=N/NC(=S)Nc2ccc(S(=O)(=O)N3CCOCC3)cc2)c1O	3.13 µM
O=Cc1cc(N=Nc2ccccc2Cl)ccc1O	0.768 µM
O=C(C1=C(Nc2ccccc2)c2ccccc2S(=O)(=O)N1)c1ccccc1	5.09 µM
COc1ccc2c(c1)[C@H]1[C@H](CO2)[C@H](c2ccccc2)[C@]2(C)C(=O)Nc3ccc(Cl)cc3C(=O)N12	> 12 µM (inactive)
O=C(CC1(O)C(=O)Nc2cc(Cl)cc(Cl)c21)c1ccncc1 (stereo not drawn)	> 12 µM (inactive)
CCC(NC(=S)NCc1ccc(F)cc1)c1ccc(C(C)C)cc1 (stereo not drawn)	5.15 µM
CCc1oc2ccccc2c1C(=O)c1cc(Br)c(O)c(Br)c1	3.28 µM
